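Tested at 5 concentrations; 48 h exposure; 96-well plates; endpoints linearly interpolated, else capped at highest concentration. TGI denotes the concentration required for complete inhibition of growth.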
Experiments:
Assay in all cases: NCI anticancer screen, dose series, 48 h
[1] = tested on: PC-3 prostate
[2] = tested on: CCRF-CEM leukemia
[3] = tested on: U251 CNS
[4] = tested on: LOX IMVI melanoma
[5] = tested on: A498 renal
[6] = tested on: UACC-62 melanoma
[7] = tested on: MDA-MB-231 breast
[8] = tested on: OVCAR-5 ovarian
[9] = tested on: SW-620 colon
[10] = tested on: MOLT-4 leukemia
[11] = tested on: A549 NSCLC
[12] = tested on: UO-31 renal
[13] = tested on: M14 melanoma
[14] = tested on: HOP-92 NSCLC
[15] = tested on: HL-60(TB) leukemia
[16] = tested on: HOP-62 NSCLC
[17] = tested on: SF-295 CNS
[18] = tested on: KM12 colon
[19] = tested on: MALME-3M melanoma
[20] = tested on: OVCAR-8 ovarian
[21] = tested on: NCI-H23 lung
[22] = tested on: MCF7 breast
[23] = tested on: SF-539 CNS
[24] = tested on: SK-OV-3 ovarian
[25] = tested on: EKVX NSCLC
[26] = tested on: OVCAR-4 ovarian
[27] = tested on: TK-10 renal
[28] = tested on: SN12C renal
[29] = tested on: SK-MEL-2 melanoma
[30] = tested on: SR leukemia
[31] = tested on: COLO 205 colon
[32] = tested on: CAKI-1 renal
[33] = tested on: NCI-H460 lung
[34] = tested on: NCI-H226 lung
[35] = tested on: HT29 colon
[36] = tested on: SK-MEL-28 melanoma
[37] = tested on: SK-MEL-5 melanoma
[38] = tested on: IGROV1 ovarian
[39] = tested on: MDA-MB-435
[40] = tested on: RXF 393 renal
[41] = tested on: 786-0 renal
[42] = tested on: HCT-15 colon
[43] = tested on: ACHN renal
[44] = tested on: OVCAR-3 ovarian
[45] = tested on: HS 578T breast
[46] = tested on: HCT-116 colon
[47] = tested on: NCI/ADR-RES ovarian
[48] = tested on: UACC-257 melanoma
[49] = tested on: BT-549 breast
[50] = tested on: MDA-N
[51] = tested on: K-562 leukemia
[52] = tested on: SNB-19 CNS
[53] = tested on: NCI-H522 lung
[54] = tested on: DU-145 prostate
[55] = tested on: RPMI-8226 leukemia
[56] = tested on: SF-268 CNS
[57] = tested on: HCC-2998 colon
[58] = tested on: SNB-75 CNS

C=C1CC[C@]2(C)[C@H](CC[C@@]34C[C@@H](CC[C@H]32)[C@@H](C(=O)O)C4)C1(C)C
TGI [1]: > 12.5 µM
TGI [2]: > 12.5 µM
TGI [3]: > 12.5 µM
TGI [4]: > 12.5 µM
TGI [5]: 9.3 µM
TGI [6]: > 12.5 µM
TGI [7]: > 12.5 µM
TGI [8]: > 12.5 µM
TGI [9]: > 12.5 µM
TGI [10]: > 12.5 µM
TGI [11]: > 12.5 µM
TGI [12]: > 12.5 µM
TGI [13]: > 12.5 µM
TGI [14]: > 12.5 µM
TGI [15]: > 12.5 µM
TGI [16]: > 12.5 µM
TGI [17]: > 12.5 µM
TGI [18]: > 12.5 µM
TGI [19]: > 12.5 µM
TGI [20]: > 12.5 µM
TGI [21]: > 12.5 µM
TGI [22]: > 12.5 µM
TGI [23]: > 12.5 µM
TGI [24]: > 12.5 µM
TGI [25]: > 12.5 µM
TGI [26]: > 12.5 µM
TGI [27]: > 12.5 µM
TGI [28]: > 12.5 µM
TGI [29]: > 12.5 µM
TGI [30]: > 12.5 µM
TGI [31]: > 12.5 µM
TGI [32]: > 12.5 µM
TGI [33]: > 12.5 µM
TGI [34]: > 12.5 µM
TGI [35]: > 12.5 µM
TGI [36]: > 12.5 µM
TGI [37]: > 12.5 µM
TGI [38]: > 12.5 µM
TGI [39]: > 12.5 µM
TGI [40]: > 12.5 µM
TGI [41]: > 12.5 µM
TGI [42]: > 12.5 µM
TGI [43]: > 12.5 µM
TGI [44]: > 12.5 µM
TGI [45]: > 12.5 µM
TGI [46]: > 12.5 µM
TGI [47]: > 12.5 µM
TGI [48]: > 12.5 µM
TGI [49]: > 12.5 µM
TGI [50]: > 12.5 µM
TGI [51]: > 12.5 µM
TGI [52]: > 12.5 µM

CNC(=O)c1ccc(C(=O)NCCCCCN(O)C(=O)CCC(=O)NCCCCCN(O)C(=O)CCC(=O)NCCCCCN(O)C(C)=O)c(O)c1O
TGI [1]: > 100 µM
TGI [2]: 31 µM
TGI [3]: > 100 µM
TGI [4]: > 100 µM
TGI [5]: > 100 µM
TGI [6]: > 100 µM
TGI [7]: > 100 µM
TGI [8]: > 100 µM
TGI [9]: > 100 µM
TGI [11]: > 100 µM
TGI [53]: > 100 µM
TGI [12]: > 100 µM
TGI [13]: > 100 µM
TGI [14]: > 100 µM
TGI [15]: > 100 µM
TGI [16]: > 100 µM
TGI [17]: > 100 µM
TGI [18]: > 100 µM
TGI [19]: > 100 µM
TGI [20]: > 100 µM
TGI [21]: > 100 µM
TGI [22]: > 100 µM
TGI [23]: > 100 µM
TGI [24]: > 100 µM
TGI [26]: > 100 µM
TGI [27]: > 100 µM
TGI [28]: > 100 µM
TGI [29]: > 100 µM
TGI [54]: > 100 µM
TGI [31]: > 100 µM
TGI [32]: > 100 µM
TGI [33]: > 100 µM
TGI [34]: > 100 µM
TGI [55]: > 100 µM
TGI [35]: > 100 µM
TGI [36]: > 100 µM
TGI [37]: > 100 µM
TGI [56]: > 100 µM
TGI [38]: > 100 µM
TGI [39]: > 100 µM
TGI [40]: > 100 µM
TGI [41]: > 100 µM
TGI [42]: > 100 µM
TGI [43]: > 100 µM
TGI [44]: > 100 µM
TGI [57]: > 100 µM
TGI [45]: > 100 µM
TGI [46]: > 100 µM
TGI [58]: > 100 µM
TGI [47]: > 100 µM
TGI [48]: > 100 µM
TGI [49]: > 100 µM
TGI [50]: > 100 µM
TGI [51]: > 100 µM
TGI [52]: > 100 µM

CC(NC(=O)OC(C)(C)C)C(=O)NC1CCCC1 (stereo not drawn)
TGI [1]: > 100 µM
TGI [2]: > 100 µM
TGI [4]: > 100 µM
TGI [5]: > 100 µM
TGI [8]: > 100 µM
TGI [9]: > 100 µM
TGI [10]: > 100 µM
TGI [11]: > 100 µM
TGI [53]: > 100 µM
TGI [12]: > 100 µM
TGI [13]: > 100 µM
TGI [14]: > 100 µM
TGI [15]: > 100 µM
TGI [17]: > 100 µM
TGI [18]: > 100 µM
TGI [19]: > 100 µM
TGI [20]: > 100 µM
TGI [21]: > 100 µM
TGI [22]: > 100 µM
TGI [24]: > 100 µM
TGI [25]: > 100 µM
TGI [26]: > 100 µM
TGI [27]: > 100 µM
TGI [28]: > 100 µM
TGI [54]: > 100 µM
TGI [30]: > 100 µM
TGI [31]: > 100 µM
TGI [32]: > 100 µM
TGI [33]: > 100 µM
TGI [34]: > 100 µM
TGI [55]: > 100 µM
TGI [35]: > 100 µM
TGI [36]: > 100 µM
TGI [37]: > 100 µM
TGI [56]: > 100 µM
TGI [38]: > 100 µM
TGI [39]: > 100 µM
TGI [40]: > 100 µM
TGI [41]: > 100 µM
TGI [43]: > 100 µM
TGI [44]: > 100 µM
TGI [57]: > 100 µM
TGI [45]: > 100 µM
TGI [46]: > 100 µM
TGI [58]: > 100 µM
TGI [47]: > 100 µM
TGI [48]: > 100 µM
TGI [50]: > 100 µM
TGI [51]: > 100 µM
TGI [52]: > 100 µM

Cc1cc(O)c(C=NC(=S)c2ccncc2)c(=O)o1
TGI [1]: > 100 µM
TGI [2]: > 100 µM
TGI [3]: > 100 µM
TGI [4]: > 100 µM
TGI [5]: > 100 µM
TGI [6]: > 100 µM
TGI [7]: > 100 µM
TGI [8]: > 100 µM
TGI [9]: > 100 µM
TGI [10]: > 100 µM
TGI [11]: > 100 µM
TGI [53]: > 100 µM
TGI [12]: > 100 µM
TGI [13]: > 100 µM
TGI [14]: > 100 µM
TGI [15]: > 100 µM
TGI [16]: > 100 µM
TGI [17]: > 100 µM
TGI [18]: > 100 µM
TGI [19]: > 100 µM
TGI [20]: > 100 µM
TGI [21]: > 100 µM
TGI [22]: > 100 µM
TGI [23]: > 100 µM
TGI [24]: > 100 µM
TGI [25]: > 100 µM
TGI [26]: > 100 µM
TGI [27]: > 100 µM
TGI [28]: > 100 µM
TGI [29]: > 100 µM
TGI [54]: > 100 µM
TGI [30]: > 100 µM
TGI [31]: > 100 µM
TGI [32]: > 100 µM
TGI [33]: > 100 µM
TGI [34]: > 100 µM
TGI [35]: > 100 µM
TGI [36]: > 100 µM
TGI [37]: > 100 µM
TGI [56]: > 100 µM
TGI [38]: > 100 µM
TGI [39]: > 100 µM
TGI [40]: > 100 µM
TGI [41]: > 100 µM
TGI [42]: > 100 µM
TGI [43]: > 100 µM
TGI [44]: > 100 µM
TGI [57]: > 100 µM
TGI [45]: > 100 µM
TGI [46]: > 100 µM
TGI [58]: > 100 µM
TGI [47]: > 100 µM
TGI [48]: > 100 µM
TGI [49]: > 100 µM
TGI [50]: > 100 µM
TGI [52]: > 100 µM

O=C(Cc1cc(=O)oc2cc(O)ccc12)N/N=C/c1ccc(N(CCCl)CCCl)cc1
TGI [1]: 35.2 µM
TGI [2]: 74.7 µM
TGI [3]: 34.1 µM
TGI [4]: 36.4 µM
TGI [5]: 41.2 µM
TGI [7]: 33.3 µM
TGI [8]: 55 µM
TGI [9]: > 100 µM
TGI [10]: 94.6 µM
TGI [11]: 32 µM
TGI [53]: 45 µM
TGI [12]: 46.2 µM
TGI [13]: 37.8 µM
TGI [14]: 43.8 µM
TGI [15]: 37.6 µM
TGI [16]: 41.4 µM
TGI [17]: 34.3 µM
TGI [18]: > 100 µM
TGI [19]: 40.9 µM
TGI [20]: 29.4 µM
TGI [21]: 69.4 µM
TGI [22]: 41.8 µM
TGI [23]: 35.6 µM
TGI [25]: 44.1 µM
TGI [26]: 87.3 µM
TGI [28]: 41.3 µM
TGI [29]: > 100 µM
TGI [54]: 41 µM
TGI [30]: 40.5 µM
TGI [31]: 72 µM
TGI [32]: 31.7 µM
TGI [33]: 29.4 µM
TGI [34]: 35 µM
TGI [55]: 43.6 µM
TGI [35]: 45.1 µM
TGI [36]: 28.6 µM
TGI [37]: 27.7 µM
TGI [56]: 30.4 µM
TGI [38]: 41.9 µM
TGI [39]: 47.7 µM
TGI [40]: 31 µM
TGI [41]: 37.3 µM
TGI [42]: > 100 µM
TGI [43]: 32.7 µM
TGI [44]: 33.1 µM
TGI [57]: > 100 µM
TGI [45]: 57.3 µM
TGI [46]: 30.2 µM
TGI [58]: 38.5 µM
TGI [47]: > 100 µM
TGI [48]: 63.1 µM
TGI [49]: 30.8 µM
TGI [50]: 63 µM
TGI [51]: 82.1 µM
TGI [52]: 42.4 µM

Reference: PubChem BioAssay (NCI)
